In patent publication US11077184B2 (priority 2011, dated 2021):
“Also recorded” adds a separate entry of the source.

Columns and labels:
murine DCs = conditions: cited from earlier work
[1] = test system: Purified B cells from C57BL6 mice; type: cell-based

Row | Substance | pro-inflammatory cytokines IL-12p40, IL-6 and TNFα produced (murine DCs) | proliferation of B cells ([3H]-thymidine incorporation, CPM) [1]
1 | tripalmitoyl-S-glyceryl-cysteine [Pam3Cys] | high levels | can induce potent proliferation of B cells; also recorded: capable of inducing potent proliferation of B cells
2 | Poly I:C | – | does not
